Legend:
[1] = 20% w/w poloxamer 407F
Description: Hydrophilic co-surfactants in the form of fatty acid soaps (i.e. sodium oleate, sodium laurate, sodium caprate, and sodium caprylate) were obtained from Nu-Chek Prep. (Elysian, Minn.).
For phase behavior studies, samples were loaded into 5 ml Wheaton vacuoles (Fisher Scientific, Pittsburgh, Pa.), and flame-sealed. The vacuoles were then immersed in a constant temperature bath. For temperatures less than 60° C., phase behavior was determined in a water bath (Koehler, Bohemia, N.Y.). At higher temperatures an oil bath (Haake, model DC3, Germany) was utilized. Temperature was raised in two degree increments from ca. 1° C. to 120° C. Samples were allowed to equilibrate for at least 1 hour at constant temperature prior to examination. Since the cubic liquid crystalline phase is isotropic (i.e. not birefringent), the determination of the gel boundary is somewhat subjective. Once equilibrium was reached, the vials were simply inverted and gravity was allowed to determine if the sample was in the sol or gel state.

[2] = In-vitro release rate of drugs in poloxamer gels; assay type: physicochemical; conditions: within the same poloxamer formulations
Description: In-vitro release rate of drugs in poloxamer gels. The in-vitro release rates of drugs in poloxamer-based gels were determined using a modified USP dissolution apparatus (Hanson Research model SR6) equipped with enhancer cells. […] Membranes (1.2 μm cellulose ester membranes, 25 mm diameter, type RAWP) were presoaked in phosphate buffer and placed on the cell. Approximately 0.6 mL of sample in the fluid sol phase was then loaded into each of the enhancer cells. The cells were subsequently closed and the gel phase was allowed to form at room temperature prior to introduction into the dissolution vessels. The dissolution paddles were rotated at a speed of 100 rpm (approximating the hydrodynamic stress found at the peritoneal cavity) and were positioned approximately 1 cm from the top of the cells for all experiments. The in-vitro release of drug from the gels was monitored over a period of 4 hr. One mL samples were collected every 0.5 hr. The vessel was refilled with fresh buffer every time a sample aliquot was removed, and each sample was run in duplicate.

[3] = Drug solubilization in poloxamer 407-water systems, apparent distribution coefficient micellar/aqueous phase; assay type: physicochemical
Description: The next day the sample was warmed momentarily to 40° C. to hasten solubilization. This process was repeated two or three times to ensure saturation. […] Prior to analysis, the samples were filtered through a 0.2 μm nylon filter syringe to remove unsolubilized drug. Samples were assayed for solubilized drug concentrations by absorbance spectroscopy (see below).
Drug Concentration Determinations. The samples were diluted to a suitable concentration with ethanol (for water insoluble drugs) or DI water. Drug concentrations were measured at the appropriate wavelength for each drug (see Table I) using a UV/Vis spectrophotometer (Beckman model DU-65). Concentrations were determined using Beer's law from the appropriate calibration curve (Table II). Gentamicin sulfate determination was performed by the UCSD Medical Center laboratory.
Where S and So are the concentration of solubilized drug in the presence and absence of poloxamer, respectively.

differences in diffusion coefficients or mean dissolution times (MDT) between drugs [2] | Structure (SMILES) | soap concentration required to melt / completely suppress the 20% poloxamer 407F gel [1] [%] | partitioning between poloxamer micelle and bulk aqueous phase [3]
 | CCCCCCCCCC(=O)[O-].[Na+] [sodium caprate] | > 5 | 
 | CCCCCCCC(=O)[O-].[Na+] [8:0 soap, sodium caprylate] | ~11.5 | 
 | CCCCCCCCCCCC(=O)[O-].[Na+] [12:0 soap, sodium laurate] | 2.5 | 
no differences were observed | Cc1ccc(C(=O)c2ccc(CC(=O)O)n2C)cc1 [sodium tolmetin, Tolmetin Sodium] |  | partitions almost entirely into the bulk aqueous phase
